Source: US9468647B2, “Methods for the treatment of endometriosis” (Miscon Trading S.A., priority 2003, dated 2016)

Test system: endometriosis
Assay: Intralesional administration of progesterone in women with endometriosis (case reports)
Format: in vivo, human
Details: person, 1 g intracystic and 1 g in each bladder nodule, follow up over 12 months
Method: They were regularly monitored by pain scores (visual analog), direct questionnaire, and ultrasound examination. […] Aspiration of the endometrioma and intracystic instillation of 1 g of progesterone was performed. Cystoscopy was carried out and 1 g of progesterone was instilled in each of the nodules in the bladder.

Structure (SMILES): CC(=O)[C@H]1CC[C@H]2[C@@H]3CCC4=CC(=O)CC[C@]4(C)[C@H]3CC[C@]12C [progesterone]
- symptoms on follow up (ovarian endometrioma and bladder wall nodules): remained symptom free
- quality of life with regard to pelvic pain and urinary symptoms: good
